Here are results for 21 compounds from patent US10435399B2, “HDAC6 inhibitory heterocyclic compound” (TAKEDA PHARMACEUTICAL COMPANY LIMITED, priority 2017, dated 2019).

The experiment has as its target T1, HDAC6 enzyme (Homo sapiens, UniProt Q9UBN7).
T1 construct: transducing full length HDAC6 gene into Sf-9 insect cells; GST; purchased SignalChem; host or cells: Sf-9 insect cells
T1 sequence (Q9UBN7 1-1215): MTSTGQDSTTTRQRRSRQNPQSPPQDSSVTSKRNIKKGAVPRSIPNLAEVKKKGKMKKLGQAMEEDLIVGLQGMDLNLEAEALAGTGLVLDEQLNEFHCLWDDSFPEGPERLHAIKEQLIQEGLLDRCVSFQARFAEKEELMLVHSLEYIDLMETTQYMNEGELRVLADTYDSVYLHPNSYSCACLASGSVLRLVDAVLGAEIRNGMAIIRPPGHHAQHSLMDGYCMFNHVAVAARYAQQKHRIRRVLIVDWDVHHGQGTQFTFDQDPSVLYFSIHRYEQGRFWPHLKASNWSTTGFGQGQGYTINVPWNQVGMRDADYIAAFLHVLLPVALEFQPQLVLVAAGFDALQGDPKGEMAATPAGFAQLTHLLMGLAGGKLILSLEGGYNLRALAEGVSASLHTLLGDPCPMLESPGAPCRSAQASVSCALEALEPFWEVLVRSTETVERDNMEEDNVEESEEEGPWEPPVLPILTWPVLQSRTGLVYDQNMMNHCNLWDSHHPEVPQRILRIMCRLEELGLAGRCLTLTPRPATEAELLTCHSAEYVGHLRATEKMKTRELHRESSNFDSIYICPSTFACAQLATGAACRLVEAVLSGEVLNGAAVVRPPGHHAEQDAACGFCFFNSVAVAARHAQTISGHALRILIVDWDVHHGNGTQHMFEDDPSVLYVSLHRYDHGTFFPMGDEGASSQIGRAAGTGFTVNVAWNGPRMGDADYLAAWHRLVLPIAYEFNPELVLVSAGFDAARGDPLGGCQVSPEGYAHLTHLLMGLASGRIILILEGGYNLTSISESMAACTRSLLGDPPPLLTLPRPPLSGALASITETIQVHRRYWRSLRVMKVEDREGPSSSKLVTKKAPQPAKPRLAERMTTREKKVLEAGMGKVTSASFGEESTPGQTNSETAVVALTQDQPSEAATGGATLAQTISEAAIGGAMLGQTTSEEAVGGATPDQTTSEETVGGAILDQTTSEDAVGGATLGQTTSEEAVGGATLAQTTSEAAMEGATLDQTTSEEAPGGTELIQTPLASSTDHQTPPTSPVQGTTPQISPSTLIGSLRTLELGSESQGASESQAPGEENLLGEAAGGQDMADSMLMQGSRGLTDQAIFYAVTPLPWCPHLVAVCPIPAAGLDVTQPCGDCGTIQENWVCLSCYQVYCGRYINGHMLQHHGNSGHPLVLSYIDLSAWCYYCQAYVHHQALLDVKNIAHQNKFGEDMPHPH
Nature of the experiment: HDAC6 enzyme inhibitory activity (HDAC-Glo I/II Assay kit). The experiment is classed as biochemical. Conditions: 10 μM, wells without enzyme = 100% inhibition; for inhibition at 10 µM: read-out: HDAC6 inhibitory rate (%) (10 μM). How it is done:
HDAC6 enzyme prepared by transducing full length HDAC6 gene into Sf-9 insect cells and purifying by GST affinity column were purchased from SignalChem. Using this enzyme, HDAC6 enzyme inhibitory activities of the compound of the present invention were evaluated. Enzymes were used after preserved at −70° C. HDAC6 enzyme inhibitory activity of the compound of the present invention was measured using HDAC-Glo™ I/II Assay kit (Promega) according to the following experimental method. The test compound diluted with assay buffer (24 mM Tris-HCl (pH 7.5), 1 mM MgCl2, 0.35 mM KCl, 135 mM NaCl, 0.6 mM Glutathione, 0.01% Tween-20) was added to a 384-well plate by each 2 μL. Then, HDAC6 enzyme solution diluted with assay buffer was added thereto by each 4 μL, and the plate was incubated at room temperature for 60 min. After incubated, HDAC substrate-Developer solution prepared according to Promega protocol attached to the assay kit was added to the 384-well plate by each 2 μL, and the enzyme reaction was started. After reacting at room temperature for 20 min, luminescence level was measured using plate reader Envision (PerkinElmer). The inhibitory activity of each compound of Example was calculated as a relative activity value when luminescence level in wells without enzyme is considered as 100% inhibition.

For the compound `O=C1c2cc(-c3nnc(C(F)F)o3)ccc2CN1[C@@H]1CCC(F)(F)C[C@@H]1c1ccccn1` (relative stereo) [Example 591, 6-(5-(difluoromethyl)-1,3,4-oxadiazol-2-yl)-2-((1R*,2S*)-4,4-difluoro-2-(pyridin-2-yl)cyclohexyl)isoindolin-1-one (optical isomer)], the “HDAC6 inhibitory rate (%) (10 μM)” value stood at 99%.

As to `O=C(NC1CC(F)(F)CC[C@H]1N1Cc2ccc(-c3nnc(C(F)F)o3)cc2C1=O)OCc1ccccc1` (stereo in doubt) [Example 517, benzyl ((1S,2R)-2-(6-(5-(difluoromethyl)-1,3,4-oxadiazol-2-yl)-1-oxo-1,3-dihydro-2H-isoindol-2-yl)-5,5-difluorocyclohexyl) carbamate], the inhibition at 10 µM was found to be 100%. Still for that read-out and setting: the value for `O=C1CCCN1[C@@H]1COCC[C@H]1N1Cc2ccc(-c3nnc(C(F)F)o3)cc2C1=O` [Example 1, 6-(5-(difluoromethyl)-1,3,4-oxadiazol-2-yl)-2-((3S,4R)-3-(2-oxopyrrolidin-1-yl)tetrahydro-2H-pyran-4-yl)isoindolin-1-one] was 101%; that for `O=C1CCCN1[C@@H]1CCCC[C@H]1N1Cc2ccc(-c3nnc(C(F)F)o3)cc2C1=O` [Example 2, 6-(5-(difluoromethyl)-1,3,4-oxadiazol-2-yl)-2-((1R,2R)-2-(2-oxopyrrolidin-1-yl)cyclohexyl)isoindolin-1-one] was 99%. Same read-out and setting: the result for `CC(C)(C)OC(=O)N[C@@H]1CCCC[C@H]1N1Cc2ccc(-c3nnc(C(F)F)o3)cc2C1=O` [Example 3, tert-butyl ((1R,2R)-2-(6-(5-(difluoromethyl)-1,3,4-oxadiazol-2-yl)-1-oxo-1,3-dihydro-2H-isoindol-2-yl)cyclohexyl)carbamate] reads 99%; that for `O=C1c2cc(-c3nnc(C(F)F)o3)ccc2CN1[C@@H]1CCCC[C@H]1N1CCCS1(=O)=O` [Example 4, 6-(5-(difluoromethyl)-1,3,4-oxadiazol-2-yl)-2-((1R,2R)-2-(1,1-dioxido-1,2-thiazolidin-2-yl)cyclohexyl)isoindolin-1-one], 99%; that for `CC(=O)N[C@@H]1CCCC[C@H]1N1Cc2ccc(-c3nnc(C(F)F)o3)cc2C1=O` [Example 5, N-((1R,2R)-2-(6-(5-(difluoromethyl)-1,3,4-oxadiazol-2-yl)-1-oxo-1,3-dihydro-2H-isoindol-2-yl)cyclohexyl)acetamide], 100%. The same measure, in the same setting: the value for `O=C1c2cc(-c3nnc(C(F)F)o3)ccc2CN1[C@@H]1CCCC[C@H]1NC(=O)C(F)(F)F` [Example 6, N-((1R,2R)-2-(6-(5-(difluoromethyl)-1,3,4-oxadiazol-2-yl)-1-oxo-1,3-dihydro-2H-isoindol-2-yl)cyclohexyl)-2,2,2-trifluoroacetamide] was 102%; that for `CCC(=O)N[C@@H]1CCCC[C@H]1N1Cc2ccc(-c3nnc(C(F)F)o3)cc2C1=O` [Example 7, N-((1R,2R)-2-(6-(5-(difluoromethyl)-1,3,4-oxadiazol-2-yl)-1-oxo-1,3-dihydro-2H-isoindol-2-yl)cyclohexyl)propanamide] was 99%. On to `O=C(N[C@@H]1CCCC[C@H]1N1Cc2ccc(-c3nnc(C(F)F)o3)cc2C1=O)OC1CC1` [Example 8, cyclopropyl ((1R,2R)-2-(6-(5-(difluoromethyl)-1,3,4-oxadiazol-2-yl)-1-oxo-1,3-dihydro-2H-isoindol-2-yl)cyclohexyl)carbamate], for which the inhibition at 10 µM was determined as 101%. The same measure, in the same setting: the value for `CC(C)C(=O)N[C@@H]1CCCC[C@H]1N1Cc2ccc(-c3nnc(C(F)F)o3)cc2C1=O` [Example 9, N-((1R,2R)-2-(6-(5-(difluoromethyl)-1,3,4-oxadiazol-2-yl)-1-oxo-1,3-dihydro-2H-isoindol-2-yl)cyclohexyl)-2-methylpropanamide] was 102%; that for `COC(=O)N[C@@H]1CCCC[C@H]1N1Cc2ccc(-c3nnc(C(F)F)o3)cc2C1=O` [Example 10, methyl((1R,2R)-2-(6-(5-(difluoromethyl)-1,3,4-oxadiazol-2-yl)-1-oxo-1,3-dihydro-2H-isoindol-2-yl)cyclohexyl)carbamate] was 99%; that for `O=C(N[C@@H]1CCCC[C@H]1N1Cc2ccc(-c3nnc(C(F)F)o3)cc2C1=O)C1CC1` [Example 11, N-((1R,2R)-2-(6-(5-(difluoromethyl)-1,3,4-oxadiazol-2-yl)-1-oxo-1,3-dihydro-2H-isoindol-2-yl)cyclohexyl)cyclopropanecarboxamide] was 98%. For `O=C(N[C@@H]1CCCC[C@H]1N1Cc2ccc(-c3nnc(C(F)F)o3)cc2C1=O)C1CCC1` [Example 12, N-((1R,2R)-2-(6-(5-(difluoromethyl)-1,3,4-oxadiazol-2-yl)-1-oxo-1,3-dihydro-2H-isoindol-2-yl)cyclohexyl)cyclobutanecarboxamide], the inhibition at 10 µM was found to be 100%. Take `O=C(CC(F)(F)F)N[C@@H]1CCCC[C@H]1N1Cc2ccc(-c3nnc(C(F)F)o3)cc2C1=O` [Example 13, N-((1R,2R)-2-(6-(5-(difluoromethyl)-1,3,4-oxadiazol-2-yl)-1-oxo-1,3-dihydro-2H-isoindol-2-yl)cyclohexyl)-3,3,3-trifluoropropanamide]: the inhibition at 10 µM was found to be 101%.

Take `O=C1c2ccccc2CN1[C@@H]1CCCC[C@H]1N1Cc2ccc(-c3nnc(C(F)F)o3)cc2C1=O` [Example 14, 6-(5-(difluoromethyl)-1,3,4-oxadiazol-2-yl)-2-((1R,2R)-2-(1-oxo-1,3-dihydro-2H-isoindol-2-yl)cyclohexyl)isoindolin-1-one]: the inhibition at 10 µM is 100%. Still for that read-out and setting: the value for `CC1(C(=O)N[C@@H]2CCCC[C@H]2N2Cc3ccc(-c4nnc(C(F)F)o4)cc3C2=O)CC1` [Example 15, N-((1R,2R)-2-(6-(5-(difluoromethyl)-1,3,4-oxadiazol-2-yl)-1-oxo-1,3-dihydro-2H-isoindol-2-yl)cyclohexyl)-1-methylcyclopropanecarboxamide] was 98%; that for `CC1(C(=O)N[C@@H]2CCCC[C@H]2N2Cc3ccc(-c4nnc(C(F)F)o4)cc3C2=O)COC1` [Example 16, N-((1R,2R)-2-(6-(5-(difluoromethyl)-1,3,4-oxadiazol-2-yl)-1-oxo-1,3-dihydro-2H-isoindol-2-yl)cyclohexyl)-3-methyloxetane-3-carboxamide] was 100%; that for `N#CC1(C(=O)N[C@@H]2CCCC[C@H]2N2Cc3ccc(-c4nnc(C(F)F)o4)cc3C2=O)CC1` [Example 17, 1-cyano-N-((1R,2R)-2-(6-(5-(difluoromethyl)-1,3,4-oxadiazol-2-yl)-1-oxo-1,3-dihydro-2H-isoindol-2-yl)cyclohexyl)cyclopropanecarboxamide] was 101%.

For `O=C(N[C@@H]1CCCC[C@H]1N1Cc2ccc(-c3nnc(C(F)F)o3)cc2C1=O)[C@@H]1CC1(F)F` [Example 18, (1S)—N-((1R,2R)-2-(6-(5-(difluoromethyl)-1,3,4-oxadiazol-2-yl)-1-oxo-1,3-dihydro-2H-isoindol-2-yl)cyclohexyl)-2,2-difluorocyclopropanecarboxamide], the inhibition at 10 µM was determined as 100%. Consider `O=C1c2cc(-c3nnc(C(F)F)o3)ccc2CN1[C@@H]1CCCC[C@H]1NC(=O)C1(F)CC1` [Example 19, N-((1R,2R)-2-(6-(5-(difluoromethyl)-1,3,4-oxadiazol-2-yl)-1-oxo-1,3-dihydro-2H-isoindol-2-yl)cyclohexyl)-1-fluorocyclopropanecarboxamide], for which the inhibition at 10 µM was found to be 101%.
